The target in one experiment is mouse TAAR1 (Mus musculus (Mouse), UniProt Q923Y8). As to the kind of experiment: Radioligand binding assay on mouse TAAR1. The conditions noted are these: for Ki: mouse TAAR1, HEK-293 membranes, first value of the mouse/rat pair. As for the experimental part: (§1) Construction of TAAR Expression Plasmids and Stably Transfected Cell Lines
(§2) For the construction of expression plasmids the coding sequences of human, rat and mouse TAAR 1 were amplified from genomic DNA essentially as described by Lindemann et al.. The Expand High Fidelity PCR System (Roche Diagnostics) was used with 1.5 mM Mg^2+ and purified PCR products were cloned into pCR2.1-TOPO cloning vector (Invitrogen) following the instructions of the manufacturer. PCR products were subcloned into the pIRESneo2 vector (BD Clontech, Palo Alto, Calif.), and expression vectors were sequence verified before introduction in cell lines.
(§3) HEK293 cells (ATCC #CRL-1573) were cultured essentially as described by Lindemann et al. (2005). For the generation of stably transfected cell lines HEK293 cells were transfected with the pIRESneo2 expression plasmids containing the TAAR coding sequences (described above) with Lipofectamine 2000 (Invitrogen) according to the instructions of the manufacturer, and 24 hrs post transfection the culture medium was supplemented with 1 mg/ml G418 (Sigma, Buchs, Switzerland). After a culture period of about 10 d clones were isolated, expanded and tested for responsiveness to trace amines (all compounds purchased from Sigma) with the cAMP Biotrak Enzyme immunoassay (EIA) System (Amersham) following the non-acetylation EIA procedure provided by the manufacturer.
Radioligand Binding Assay on Mouse TAAR1
(§4) Membrane Preparation and Radioligand Binding.
HEK-293 cells stably expressing mouse TAAR1 were maintained at 37° C. and 5% CO2 in DMEM high glucose medium, containing fetal calf serum (10%, heat inactivated for 30 min at 56° C.), penicillin/streptomycin (1%), and 375 μg/ml geneticin (Gibco). […] With each new membrane batch the dissociation constant (Kd) was determined via a saturation curve. […] After addition of 45 μl of Microscint 40 (PerkinElmer) the Unifilter-96 plate was sealed and after 1 hr the ratioactivity counted using a TopCount Microplate Scintillation Counter (Packard Instrument Company).

The target of the next experiment is rat TAAR1 (Rattus norvegicus (Rat), UniProt Q923Y9). The experiment is described as follows: Radioligand binding assay on rat TAAR1. The following applies: for Ki: rat TAAR1, HEK-293 membranes, second value of the mouse/rat pair. As for the experimental part: as §1, §2, §3
Radioligand Binding Assay on Rat TAAR1
as §4
HEK-293 cells stably expressing rat TAAR1 were maintained at 37° C. and 5% CO2 in DMEM high glucose medium, containing fetal calf serum (10%, heat inactivated for 30 min at 56° C.), penicillin/streptomycin (1%), and 375 μg/ml geneticin (Gibco). Cells were released from culture flasks using trypsin/EDTA, harvested, washed twice with ice-cold PBS (without Ca^2+ and Mg^2+), pelleted at 1,000 rpm for 5 min at 4° C., frozen and stored at −80° C. Frozen pellets were suspended in 20 ml HEPES-NaOH (20 mM, pH 7.4) containing 10 mM EDTA and homogenized with a Polytron (PT 6000, Kinematica) at 14,000 rpm for 20 s. The homogenate was centrifuged at 48,000×g for 30 min at 4° C. Subsequently, the supernatant was removed and discarded, and the pellet resuspended in 20 ml HEPES-NaOH (20 mM, pH 7.4) containing 0.1 mM EDTA using the Polytron (20 s at 14,000 rpm). This procedure was repeated and the final pellet resuspended in HEPES-NaOH containing 0.1 mM EDTA and homogenized using the Polytron. […] With each new membrane batch the dissociation constant (Kd) was determined via a saturation curve. […] After addition of 45 μl of Microscint 40 (PerkinElmer) the Unifilter-96 plate was sealed and after 1 hr the ratioactivity counted using a TopCount Microplate Scintillation Counter (Packard Instrument Company).

Chain of rat TAAR1 (Q923Y9 whole entry): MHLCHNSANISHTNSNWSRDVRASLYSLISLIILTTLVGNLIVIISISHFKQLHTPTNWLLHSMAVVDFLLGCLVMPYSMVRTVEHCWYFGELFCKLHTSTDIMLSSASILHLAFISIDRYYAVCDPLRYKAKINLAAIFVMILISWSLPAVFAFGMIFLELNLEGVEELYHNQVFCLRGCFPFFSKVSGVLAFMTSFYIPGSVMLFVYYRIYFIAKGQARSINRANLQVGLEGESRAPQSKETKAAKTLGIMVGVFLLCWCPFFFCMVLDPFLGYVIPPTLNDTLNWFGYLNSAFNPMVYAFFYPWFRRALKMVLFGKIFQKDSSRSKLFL
Chain of mouse TAAR1 (Q923Y8 whole entry): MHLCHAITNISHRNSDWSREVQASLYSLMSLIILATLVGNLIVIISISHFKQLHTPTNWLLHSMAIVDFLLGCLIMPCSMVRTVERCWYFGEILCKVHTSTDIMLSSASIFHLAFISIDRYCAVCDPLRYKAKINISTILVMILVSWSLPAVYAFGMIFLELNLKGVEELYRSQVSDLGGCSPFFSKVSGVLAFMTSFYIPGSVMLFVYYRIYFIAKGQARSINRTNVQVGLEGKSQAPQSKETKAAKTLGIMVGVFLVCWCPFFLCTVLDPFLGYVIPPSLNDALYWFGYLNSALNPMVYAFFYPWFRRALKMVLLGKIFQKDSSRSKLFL

With `CC(CC(F)(F)F)OC(=O)Nc1ccc(C2CCNC2)cc1` (racemic) [Example 131, (RS)-(4-Pyrrolidin-3-yl-phenyl)-carbamic acid (RS)-3,3,3-trifluoro-1-methyl-propyl ester], the results for the Ki at mouse TAAR1 and on rat TAAR1 were 0.0208 µM and 0.0219 µM, respectively.
For `CC1(c2ccc(NC(=O)c3ccc(Cl)cc3)cc2)CCN(Cc2ccccc2)C1` (racemic) [Example 40, (RS)—N-[4-(1-Benzyl-3-methyl-pyrrolidin-3-yl)-phenyl]-4-chloro-benzamide], affinity at rat TAAR1 was put at a Ki of 0.522 µM.
As to `O=C(Nc1cccc(OC2CCNC2)c1)c1ccc(Cl)cc1` (racemic) [Example 70, (RS)-4-Chloro-N-[3-(pyrrolidin-3-yloxy)-phenyl]-benzamide], the results for the Ki at mouse TAAR1 and at rat TAAR1 were 0.0097 µM and 0.0935 µM, respectively.
Take `CCN(C[C@H]1COC(N)=N1)c1ccccc1` [^3[H]—(S)-4-[(ethyl-phenyl-amino)-methyl]-4,5-dihydro-oxazol-2-ylamine, reference compound]: the Kd at mouse TAAR1 (mouse TAAR1 membranes, saturation curve, read-out: dissociation constant (Kd) of the radioligand) is around 0.7 nM; at rat TAAR1 (rat TAAR1 membranes, saturation curve, read-out: dissociation constant (Kd) of the radioligand), around 2.3 nM.

Source of the values: patent publication US10501411B2, “Substituted benzamides” (Hoffmann-La Roche Inc., priority 2009, dated 2019).
